Measured values published in PubChem BioAssay (NCI).
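Step 1: Grow cells in 96-well plates. Step 2: Expose to compound for 48 hours at 5 concentrations. Step 3: Interpolate endpoints linearly; if unreached, use highest concentration. At the GI50, growth is halved. TGI denotes the concentration required for complete inhibition of growth.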

Key:
Assay in all cases: NCI-60 cell line screen, 48 h
UACC-257 melanoma = system: UACC-257 melanoma
U251 CNS = system: U251 CNS
SF-539 CNS = system: SF-539 CNS
KM12 colon = system: KM12 colon
DMS 114 small cell lung = system: DMS 114 small cell lung
SNB-75 CNS = system: SNB-75 CNS
KM20L2 colon = system: KM20L2 colon
HCC-2998 colon = system: HCC-2998 colon
SK-MEL-5 melanoma = system: SK-MEL-5 melanoma
SN12C renal = system: SN12C renal
ACHN renal = system: ACHN renal
SF-295 CNS = system: SF-295 CNS
NCI-H522 lung = system: NCI-H522 lung

Compound	TGI (UACC-257 melanoma)	TGI (U251 CNS)	TGI (SF-539 CNS)	TGI (KM12 colon)	TGI (DMS 114 small cell lung)	TGI (SNB-75 CNS)	TGI (KM20L2 colon)	TGI (HCC-2998 colon)	TGI (SK-MEL-5 melanoma)	TGI (SN12C renal)	TGI (ACHN renal)	GI50 (SF-295 CNS)	TGI (SF-295 CNS)	GI50 (NCI-H522 lung)	TGI (NCI-H522 lung)	GI50 (SF-539 CNS)	GI50 (SNB-75 CNS)	GI50 (HCC-2998 colon)	GI50 (ACHN renal)
O=C1CCC(c2ccccc2)=NN1c1nsc2ccccc12	> 100 µM	> 100 µM	> 100 µM	> 100 µM	> 100 µM	> 100 µM	> 100 µM	> 100 µM	> 100 µM	> 100 µM	> 100 µM								
COc1cnc2c(c1)C(=O)c1c-2n(CCCN2CCOCC2)c(=O)c2cc(Cl)ccc12			0.65 µM			57.1 µM		> 100 µM			> 100 µM	0.239 µM	0.664 µM	0.244 µM	> 100 µM	0.23 µM	15.1 µM	> 100 µM	0.332 µM
COc1cccc(N2C(Cl)C(=O)C2c2c[nH]c3ccccc23)c1 (configuration not stated)	> 100 µM	> 100 µM		> 100 µM	> 100 µM		> 100 µM		> 100 µM	> 100 µM			> 100 µM		> 100 µM				
